Assay results: article PMC6279743, “A small molecule ApoE4-targeted therapeutic candidate that normalizes sirtuin 1 levels and improves cognition in an Alzheimer’s disease mouse model” (Scientific Reports, 2018)
Entries after “also recorded” stand apart in the source; their conditions may differ. Like-named read-outs stand apart in the source and are kept apart here.

How the values were obtained:
[1] = test system: SirT1 levels in N2a-E4 cells; experiment: SirT1 AlphaLISA in N2a-E4 cells (HTS, secondary and dose-response testing); type: cell-based, murine; settings: for Dose-response increase in SirT1 in secondary testing: N2a-E4 cells, 1, 5 and 10 μM; for SirT1 level in HTS: 24 hrs, NIH Clinical Collection screen, A03 5 μM as positive control; for SirT1 increase, racemate vs enantiomers: 5 and 50 μM, n = 3 wells
Experimental: For HTS we tested a portion of the UCLA compound library (10 plates) including the NIH Clinical Collection library (3 plates). Complete medium (25 µL) was added to each well of 384-well plates, then library compounds were added (250 nL) followed by a suspension of 4 × 10^5 cells/mL murine neuroblastoma N2a cells (25 μL) stably transfected with ApoE4 (N2a-E4). After incubation of the N2a-E4 cells with compounds for 24 hrs at 37 °C and 5% CO2, all but ~6 μL of medium were removed and AlphaLISA Lysis Buffer complemented with HALT protease/phosphatase inhibitor (20 μL, 1X final) was added to each well. To maximize lysis, the plates were frozen at −80 °C. For the AlphaLISA, lysates were thawed and vortexed for 1 min at 3000 rpm.
The AlphaLISA comprises streptavidin donor beads, biotinylated anti-SirT1 N-terminal antibody (19A7AB4), and acceptor beads conjugated to the anti-SirT1 C-terminal antibody (1F3); when the target protein is bound by both antibodies, the beads are in close enough proximity for a transfer of ^1O2 and emission of a detectable signal (Supplementary Fig. S3). For the AlphaLISA, a 384-proxy plate was preloaded with AlphaLISA buffer (2 µL, 1X) with HALT (1X), then cell lysate (2 μL) was transferred to the proxy plate followed by the antibody-mix (2 μL). After incubation at room temperature for 1 hr, the donor bead mixture was added (2 µL) and incubated for an additional 30 min. The plates were then read in an Envision plate reader. All points are one replicate. The standard curve is generated by serial dilution of recombinant SirT1 to assess the linear range of the assay; study samples undergo serial dilution as well. We use A03 as a positive control in the HTS assay. The Z-value, while not ideal, was <1 for the assay (Supplementary Fig. S3).
Compound in medium (50 µL, 2X) was loaded into a 96-well plate, then 4 × 10^4 cells were added to each well; 24 hrs later the medium was removed and cells lysed. Lysate protein concentration was determined using the Bradford assay according to the manufacturer’s instructions. SirT1 was determined in lysates using the SirT1 AlphaLISA as described above.

[2] = Parallel Artificial Membrane Permeability Assay (PAMPA; IAM column); type: in vitro ADME; settings: for retention time (Tr) in PAMPA: IAM.PC.DD2 column, acetonitrile:PBS (pH 5.6) 35:65; for KIAM: KIAM = (Tr-T0)/T0, T0 = 1.24 min; for (KIAM/MW^4) * 10^−(10): MW 255.74 g/mol
Experimental: We used L(+)tartaric acid to isolate the L-enantiomer salt and D(-) tartaric acid to isolate the D-enantiomer salt, followed by neutralization of the salt with NaOH and re-crystallization to obtain the enantiomers. Enantiomer abundance (Supplementary Fig. S4) was determined by HPLC using a Chiralpak IB column. Isopropanol (0.2% diethylamine)/hexanes was used for gradient elution with 5–50% isopropanol (0.2% diethylamine) for 11 min, a Chiralpak IB column, and with sample (1 μL, 1.25 mg/mL) injection, 220 nm wavelength detection, and a flow rate of 1 mL/min. […] The L-alanine analog co-elutes with enantiomer-1 while the D-alanine analog co-elutes with enantiomer-2. Analysis of the enantiomers and A03 in the Parallel Artificial Membrane Permeability Assay (PAMPA) was performed and is described in Supplementary Methods. […]
PAMPA. An IAM.PC.DD2 Regis Technologies analytical (10 cm x 4.6 mm) column wherein phospholipid is bonded on 10 μm, 300 Å, spherical aminopropyl silica and end capped with C10 and C3 amides was used to determine membrane permeability of A03, E1 and E2. An isocratic method was used with a mobile phase comprising acetonitrile:PBS (pH 5.6) equal to 35:65, an injection volume of 5 µL, and a flow rate of 1 mL/min. The parameters determined are Tr = retention time of compound; KIAM= (Tr-T0)/T0; T0= is the delay time of the column, determined by use of 100 µg/mL citric acid) and was T0= 1.24 min; and (KIAM/MW4)*10-(10). The molecular weight of all three compounds was 255.74 g/mol. […]
Supplementary Fig. S1. […] (a) Transient transfection with either
ApoE3 or E4 decreased SirT1 levels as compared to empty vector (Pc/DMSO), but the decrease was greater with […]

[3] = Pharmacokinetics after oral delivery in mice; type: in vivo; settings: oral 10 mg/kg; for Tmax / AUC: mouse; for Tmax: brain, n = 1 per time point; for AUC: plasma; for AUC / AUC brain: 1-8 hours
Experimental: All in vivo experiments described were carried out in strict accordance with good animal practice according to NIH recommendations. All procedures for animal use were approved by the Animal Research Committee (ARC) at UCLA and under an approved ARC protocol. Pharmacokinetic (PK) analysis[68]–[70] consisted of oral delivery of compounds (10 mg/Kg) to individual mice followed by euthanasia at 1, 2, 4, 6, and 8 hours post-dose by ketamine/xylazine over-anesthesia, blood collection by cardiac puncture, and transcardial saline perfusion. Whole blood was centrifuged at 5000 rpm for 10 min. in a 5 °C centrifuge to isolate plasma and the plasma stored at −20 °C before analysis. Whole brains were collected, dissected down the midline, snap frozen on dry ice, and stored at −80 °C before analysis. The levels of the compounds in both plasma and brain tissue were determined by a quantitative LC/MS/MS methodology at Integrated Analytical Solutions (IAS, Berkeley, CA). Plasma samples were precipitated with an acetonitrile: methanol (1:1) cocktail containing an internal standard. Brain samples were homogenized directly in ethyl acetate by the liquid-liquid method. The resulting supernatant was evaporated to dryness and subjected to LC/MS/MS analysis. The Tmax, Cmax, brain-to-plasma ratios and brain levels were then calculated using PK Solutions software (SummitPK).

[4] = Pharmacokinetics after subcutaneous (SQ) injection in mice; type: in vivo; settings: mouse, mice, SQ 10 mg/kg; for Cmax: brain, n = 1, read-out: Cmax in brain
[5] = Brain compound levels 2 hours after the last dose in efficacy studies; type: in vivo, mice; settings: pilot study, SQ 10 mg/kg/day, 28 days, n = 8
Experimental: Mice were euthanized and blood/tissues collected 2 hrs after dosing on day 28 by the method described above for PK. Frontal and parietal cortices (FrCx and PtCx, respectively), as well as the remaining brain tissue, from individual mice were dissected, snap frozen on dry ice, and stored at −80 °C. Plasma samples and the brain tissue minus the FrCx and PtCx (the ‘rest’) from all compound-treated mice were sent to IAS for compound level analysis as described above.
Mice were euthanized and blood/tissues collected 2 hrs after dosing on Day 25 by the method described above for PK. FrCx, PtCx, and hippocampi (Hip) were collected from all mice for SirT1 and sAPPα level determination by AlphaLISA. Protein concentration was determined using a Bradford protein assay. Brain and plasma levels of A03 were determined at IAS.
Mice were euthanized and blood/tissues collected 2 hrs after dosing on Day 56 by the method described above for PK. Hip and FrCx were collected for analysis of SirT1, sAPPα, and Aβ1-42 levels by AlphaLISA. For Aβ1-42 the Perkin Elmer kit AL276C was used. Protein concentrations were determined using the Bradford protein assay. The sAPPα and sAPPβ AlphaLISAs were similar to the SirT1 AlphaLISA (see Supplementary Fig. S3) but the former uses anti-sAPPα antibody AF1168 and 2B3-biotinylated antibodies and the latter an anti-sAPPβ antibody (IBL Cat. #18957) and an anti-N-terminal APP antibody (R&D Systems AF1168) instead of anti-SirT1 antibodies. Brain tissue and plasma were sent to IAS for A03 level analysis.

[6] = test system: humans; set-up: method as in PMID 22616762; settings: cited from earlier work
[7] = secondary assay, N2a-E4 cells, n = 6 wells

Row | Compound | Dose-response increase in SirT1 in secondary testing [1] | SirT1 level in HTS ([1]; N2a-E4 cells) | SirT1 increase vs DMSO control at 1 μM [1, 7] | SirT1 increase, racemate vs enantiomers ([1]; N2a-E4 cells) | retention time (Tr) in PAMPA [2] | KIAM [2] | (KIAM/MW^4) * 10^−(10) [2] | Tmax [3] [h] | AUC [3] [ng·h/mL] | AUC brain [3] [ng·h/g] | other results
1 | CNCCC(Oc1ccc(C(F)(F)F)cc1)c1ccccc1 (centres unmarked) [fluoxetine, reference compound] | neither fluoxetine nor memantine (Fig. 3a) elicited a dose-response increase in SirT1 | neither fluoxetine nor memantine enhanced SirT1 | only A03 and memantine at 1 μM elicited modest but significant increases |  |  |  |  |  |  |  | 
2 | C[C@@H](N)C(=O)OC(C)(C)Cc1ccc(Cl)cc1 [E2] |  |  |  | shows lower potency | 3.31 | 1.67 | 3.90 | 1 | 104 | 806 | 
3 | CC12CC3CC(C)(C1)CC(N)(C3)C2 [memantine, reference compound] | neither fluoxetine nor memantine (Fig. 3a) elicited a dose-response increase in SirT1 | neither fluoxetine nor memantine enhanced SirT1 | modest but significant increases |  |  |  |  |  |  |  | SirT1 increase vs DMSO control at 5 and 10 μM ([1]; secondary assay, N2a-E4 cells, 5 and 10 μM, n = 6 wells): not at 5 or 10 μM
4 | C[C@H](N)C(=O)OC(C)(C)Cc1ccc(Cl)cc1 [E1] |  |  |  | more effective in increasing SirT1 in vitro compared to the optical antipode E2; also recorded: increase SirT1 in N2a-E4 with high significance | 3.3 | 1.66 | 3.88 | 1 | 86 | 850 | Cmax ([4]; sc): ~5600 ng/g; Cmax ([4]; subcutaneous): ~5800 ng/g; AUC ([4]; plasma, sc): 657 ng·h/mL; Brain levels 2 hours after the last dose, E1 vs A03 [5]: slightly lower
5 | Cc1nc(-c2cccnc2)sc1C(=O)Nc1ccccc1-c1cn2c(CN3CCOCC3)csc2n1 [SRT2104] |  |  |  |  |  |  |  |  |  |  | Tolerability after single and multiple oral dosing [6]: well tolerated
